Key:
IEC-18 cells = test: Indomethacin-induced apoptosis of IEC-18 cells (flow cytometry); assay type: cell-based, rat; conditions: 24 h, FIG. 1
Experimental: Rat ileum epithelial cells identified as IEC-18, were purchased from ATCC. The cells were seeded and cultured overnight. In three (3) series of tests, each of PGE2, prostaglandin EP4 agonist 1 and prostaglandin EP4 agonist prodrug 3 was given at one or two concentrations to separate samples of the cells in a serum-free medium. One hour later, the non-steroidal anti-inflammatory drug (NSAID) indomethacin at 100 μM was added into the culture medium to induce apoptosis of the IEC-18 cells. Twenty four (24) hours after the addition of indomethacin, the cells were collected and processed for flow cytometry analysis. Ten thousand (10,000) cells were sorted for each sample, and the percentage of apoptotic cells was calculated.

gastric mucous cells = test: BrdU immunostaining of stomach tissue sections from indomethacin-dosed mice; assay type: in vivo, mouse; conditions: given prior to indomethacin, FIG. 7
Experimental: Each of prostagiandin EP4 agonist 1 and PGE 1 analog Misoprostol was given to C57BL/6 mice at two or three concentrations. Twenty four (24) hours and 30 minutes later, the NSAID indomethacin was given at 20 mg/kg to induce stomach lesions and stomach inflammation. Twenty four (24) hours after indomethacin dosing, the mice were sacrificed and the stomach lesions were scored histopathologically and by gross lesion count.
BrdU immunostaining was performed on stomach tissue sections from mice treated with the prostaglandin EP4 agonist 1 and the PGE1 analog Misoprostol. Incorporation of BrdU label, as detected with positive BrdU immunostaining, is indicative of cell growth/regeneration. The abilities of prostaglandin EP4 agonist 1 and the PGE1 analog Misoprostol to regenerate gastric epithelial cells when given prior to indomethacin dosing were compared. The mean percentages of BrdU label incorporated cells in stomach tissue sections and the standard errors of the means from both treatments are shown in FIG. 7.

AGS cells = test: Indomethacin-induced apoptosis of AGS gastric epithelial cells (flow cytometry); assay type: cell-based; conditions: FIG. 2
Experimental: Studies similar to those described for Examples 38 to 40 were conducted on cultured human gastric epithelial cells. This cell line, designated as AGS, was purchased from ATCC. […] Prostaglandin EP4 agonist 1 was given at four different concentrations to separate samples of the cells in a serum-free medium. One hour later, indomethacin at 400 μM was added into the culture medium in three of the samples to induce apoptosis of the AGS cells. Twenty four (24) hours after the addition of indomethacin, the cells were collected and processed for flow cytometry analysis. Ten thousand (10,000) cells were sorted for each sample, and the percentage of apoptotic cells was calculated.

Structure (SMILES): CC1(C)C(=O)[C@H](C/C=C\CCCC(=O)O)[C@@H](/C=C/C(O)CCc2sc3ccccc3c2Cl)[C@@H]1O (stereo partly drawn) [prostaglandin EP4 agonist 1]
- effect on indomethacin-induced apoptosis (in words) (IEC-18 cells; indomethacin 100 μM): reduced indomethacin-induced apoptosis significantly
- restoration of regenerative ability of gastric mucous cells, BrdU label (in words) (gastric mucous cells): significant restoration
- restoration of regenerative ability of gastric mucous cells injured by indomethacin (BrdU label) (gastric mucous cells; maximum dose employed): about 25%
- apoptosis or cell death with the agonist alone (no indomethacin) (AGS cells; serum-free medium): very little or substantially no apoptosis or cell death

Structure (SMILES): CCCCC[C@H](O)/C=C/[C@H]1[C@H](O)CC(=O)[C@@H]1C/C=C\CCCC(=O)O [PGE2, prostaglandin E2, reference compound]
- reduction of indomethacin-induced apoptosis (IEC-18 cells; serum-free medium, indomethacin 100 μM added 1 h after compound): about 65%

Structure (SMILES): COc1ccc2c(c1)c(CC(=O)O)c(C)n2C(=O)c1ccc(Cl)cc1 [Indomethacin, indomethacin, reference compound]
- apoptosis induced by indomethacin itself (AGS cells; indomethacin 400 μM, 24 h): about 30%

Reference: patent US20070123569A1, “THERAPEUTIC METHODS USING PROSTAGLANDIN EP4 AGONIST COMPONENTS” (ALLERGAN, INC., priority 2005, published 2007)
